Assay results as given in US20150272939A1, “Identification of Small Molecule Inhibitors of Jumonji AT-Rich Interactive Domain 1A (JARID1A) and 1B (JARID1B) Histone Demethylase” (Yale University, priority 2012, published 2015).
Read-outs that look alike come from different tables or passages of the source. Values belong to the molecule of their own block, whether it stands above or below them.

Experiments:
JARID1B = molecular target: T1, JARID1B (Homo sapiens, UniProt Q9UGL1); experiment: FLAG-JARID1B histone demethylase assay with AlphaScreen detection (HTS and dose response); type: biochemical; details: for Assay − Artifact Signal (percent): assay signal minus artifact signal; for inhibition at 20 µM / Inhibitory effect (percent): high-throughput screen, compound 20 μM; for inhibition at 20 µM: read-out: Inhibitory effect (percent); for Assay Signal (percent) / Validation result of HTS active: effect of the compound in the JARID1B AlphaScreen demethylase assay: validation of HTS actives; for Assay Signal (percent): effect of compound in JARID1B AlphaScreen assay; for Validation result of HTS active: effect of the compound in the JARID1B AlphaScreen demethylase assay: total signal before subtraction of artifact signal;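 as to Assay Signal (percent): compound tested at 20 µM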;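 as to Assay − Artifact Signal (percent): compound tested at 20 µM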;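 as to all read-outs here: FLAG-tagged JARID1B at 4 nM acting on a biotinylated H3K4me3 peptide, demethylation read by AlphaScreen luminescence, with hits checked against bio-H3K4me2 without enzyme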
T1 construct: The FLAG tagged full length JARID1B enzyme was expressed in Sf21 insect cells using FLAG-JARID1B baculoviruses; FLAG (N); made in house; host or cells: Sf21 insect cells (baculovirus)
T1 sequence (Q9UGL1 whole entry): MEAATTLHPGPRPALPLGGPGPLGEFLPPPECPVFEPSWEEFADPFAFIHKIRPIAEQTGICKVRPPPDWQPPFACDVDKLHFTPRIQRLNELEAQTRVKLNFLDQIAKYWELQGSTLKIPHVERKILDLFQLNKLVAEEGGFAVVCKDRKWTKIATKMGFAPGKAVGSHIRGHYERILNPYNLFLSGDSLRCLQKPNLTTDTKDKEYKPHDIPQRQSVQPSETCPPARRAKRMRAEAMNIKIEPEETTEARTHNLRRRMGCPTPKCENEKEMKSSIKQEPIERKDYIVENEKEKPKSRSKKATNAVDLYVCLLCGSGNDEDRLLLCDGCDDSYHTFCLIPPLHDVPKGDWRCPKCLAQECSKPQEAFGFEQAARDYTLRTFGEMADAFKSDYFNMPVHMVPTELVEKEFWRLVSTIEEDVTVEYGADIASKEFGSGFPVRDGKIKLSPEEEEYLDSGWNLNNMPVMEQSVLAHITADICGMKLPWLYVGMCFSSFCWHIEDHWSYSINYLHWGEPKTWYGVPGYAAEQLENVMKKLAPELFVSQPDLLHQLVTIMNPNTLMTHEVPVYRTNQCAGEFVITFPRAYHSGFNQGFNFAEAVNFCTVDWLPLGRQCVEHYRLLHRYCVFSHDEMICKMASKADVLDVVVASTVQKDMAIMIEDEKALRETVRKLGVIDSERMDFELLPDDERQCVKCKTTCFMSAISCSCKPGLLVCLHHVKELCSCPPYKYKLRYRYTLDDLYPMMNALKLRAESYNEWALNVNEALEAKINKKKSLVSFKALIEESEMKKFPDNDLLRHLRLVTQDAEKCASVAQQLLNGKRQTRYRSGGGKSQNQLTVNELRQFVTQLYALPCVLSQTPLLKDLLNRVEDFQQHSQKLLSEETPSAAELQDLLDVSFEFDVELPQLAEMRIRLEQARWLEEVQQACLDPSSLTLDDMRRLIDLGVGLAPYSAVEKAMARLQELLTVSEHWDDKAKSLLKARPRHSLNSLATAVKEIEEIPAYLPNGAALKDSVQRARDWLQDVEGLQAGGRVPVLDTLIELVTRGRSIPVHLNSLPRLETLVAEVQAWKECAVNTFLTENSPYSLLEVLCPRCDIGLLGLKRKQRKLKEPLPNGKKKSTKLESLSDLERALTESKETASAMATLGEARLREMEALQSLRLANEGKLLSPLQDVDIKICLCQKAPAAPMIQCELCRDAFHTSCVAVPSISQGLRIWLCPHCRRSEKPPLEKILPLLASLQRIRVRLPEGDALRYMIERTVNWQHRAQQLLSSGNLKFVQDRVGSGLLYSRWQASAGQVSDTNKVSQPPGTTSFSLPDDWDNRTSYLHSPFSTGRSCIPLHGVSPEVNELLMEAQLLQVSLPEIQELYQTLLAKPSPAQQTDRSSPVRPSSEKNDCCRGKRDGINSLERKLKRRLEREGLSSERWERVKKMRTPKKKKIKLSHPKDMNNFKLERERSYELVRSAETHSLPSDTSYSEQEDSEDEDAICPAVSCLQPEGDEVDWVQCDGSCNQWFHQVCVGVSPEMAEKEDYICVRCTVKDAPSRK

[1] = AlphaScreen counterscreen against bio-H3K4me2 peptide in the absence of enzyme (artifact signal); details: for Artifact Signal (percent): effect of the compound when incubated with bio-H3K4me2 peptide (counterscreen, no enzyme); for Artifact signal: effect of the compound when it is incubated with bio-H3K4me2 peptide: counterscreen, no enzyme;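 as to all read-outs here: counterscreen run without enzyme against bio-H3K4me2 peptide to remove false positive hits from the JARID1 demethylase AlphaScreen screen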
[2] = standard demethylase conditions (10 μM α-KG, 50 μM Fe (II))
[3] = dose response at 15 μM (low) Fe (II), read-out: IC50 (μM) low Fe (II)
[4] = dose response at 50 μM (high) Fe (II), read-out: IC50 (μM) high Fe (II)

Molecule: OC1CCN(C(=S)NC2CC2)CC1 [YU144896]
- inhibition at 20 µM (JARID1B; [2]): 90.6%
- Validation result of HTS active: effect of the compound in the JARID1B AlphaScreen demethylase assay (JARID1B): −9.38
- Artifact signal: effect of the compound when it is incubated with bio-H3K4me2 peptide [1]: −14.49

Molecule: Cn1cnc([N+](=O)[O-])c1Sc1[nH]cnc2ncnc1-2 [YU033698, AZATHIOPRINE, reference compound]
- inhibition at 20 µM (JARID1B; [2]): 88.8%
- Validation result of HTS active: effect of the compound in the JARID1B AlphaScreen demethylase assay (JARID1B): 10.40
- Artifact signal: effect of the compound when it is incubated with bio-H3K4me2 peptide [1]: 5.31

Molecule: CCOC(=O)C(CCOc1cccc(CC)c1)C(=O)OCC [YU151071]
- Assay − Artifact Signal (percent) (JARID1B): 9.86%
- inhibition at 20 µM (JARID1B; [2]): 96.7%
- Assay Signal (percent) (JARID1B): 6.13%
- Artifact Signal (percent) [1]: −3.73%

Molecule: CC(C)(C#N)O[C@@H]1O[C@H](CO)[C@@H](O)[C@H](O)[C@H]1O [YU155312, LINAMARIN, reference compound]
- Assay − Artifact Signal (percent) (JARID1B): 99.23%
- inhibition at 20 µM (JARID1B; [2]): 60.3%
- Assay Signal (percent) (JARID1B): 92.68%
- Artifact Signal (percent) [1]: −6.55%

Molecule: COC(=O)c1cc(Br)c(OCc2ccccc2)c(CO[Si](C(C)(C)C)(C(C)(C)C)C(C)(C)C)c1OCc1ccccc1 [YU221143]
- Assay − Artifact Signal (percent) (JARID1B): 26.59%
- inhibition at 20 µM (JARID1B; [2]): 40.9%
- Assay Signal (percent) (JARID1B): 22.60%
- Artifact Signal (percent) [1]: −3.99%

Molecule: Cc1nc(NC(=O)c2cc3ccccc3o2)sc1C [YU147750]
- inhibition at 20 µM (JARID1B; [2]): 86.4%
- Validation result of HTS active: effect of the compound in the JARID1B AlphaScreen demethylase assay (JARID1B): −2.53
- Artifact signal: effect of the compound when it is incubated with bio-H3K4me2 peptide [1]: −6.59

Molecule: c1ccc(CCc2nn3c(-c4ccncc4)nnc3s2)cc1 [YU150981]
- Assay − Artifact Signal (percent) (JARID1B): 48.70%
- inhibition at 20 µM (JARID1B; [2]): 71.2%
- Assay Signal (percent) (JARID1B): 52.35%
- Artifact Signal (percent) [1]: 3.65%

Molecule: C=CCOc1c(Cl)cc(C=C[N+](=O)[O-])cc1OCC (single isomer, unassigned) [YU148636]
- Assay − Artifact Signal (percent) (JARID1B): 11.11%
- inhibition at 20 µM (JARID1B; [2]): 34.7%
- Assay Signal (percent) (JARID1B): 10.64%
- Artifact Signal (percent) [1]: −0.47%

Molecule: CC(=O)[O][Hg][c]1ccccc1 [YU034074, PHEN[…], ACETATE, reference compound]
- Artifact signal: effect of the compound when it is incubated with bio-H3K4me2 peptide [1]: −10.79

Molecule: O=c1c2ccccc2[se]n1-c1ccccc1 [YU034226, EBSELEN, reference compound]
- inhibition at 20 µM (JARID1B; IDs marked *: additional hits under reaction condition with 1 mM α-KG): 56.5%
- inhibition at 20 µM (JARID1B; [2]): 41.4%

Molecule: N#C/C(=C\c1ccncc1)c1nc2cc(C(F)(F)F)ccc2s1 [ChemBridge 7812182]
- IC50 (JARID1B; [3]): 1.66 µM
- IC50 (JARID1B; [4]): 1.15 µM

Molecule: O=c1ccc2cc(O)c(O)cc2o1 [Esculetin, esculetin, reference compound]
- IC50 (JARID1B; [3]): 2.57 µM
- IC50 (JARID1B; [4]): 4.6 µM

Molecule: O=C(O)/C=C/c1ccc(O)c(O)c1 [Caffeic acid, reference compound]
- IC50 (JARID1B; [3]): 1.71 µM
- IC50 (JARID1B; [4]): 2.88 µM

Molecule: TYROTHRICIN [YU034048, reference compound]
- Inhibitory effect (percent) (JARID1B; [2]): 68.66%

Other lines, results leading:

- Assay − Artifact Signal (percent) (JARID1B): 9.26%
- inhibition at 20 µM (JARID1B; [2]): 78.8%
- Assay Signal (percent) (JARID1B): 9.12%
- Artifact Signal (percent) [1]: −0.14%
Molecule: O=C1C=C2C[C@@]3(O)COc4cc(O)ccc4C3=C2C=C1O [YU155025, BRAZILEIN, reference compound]

- inhibition at 20 µM (JARID1B; [2]): 84.4%
- Validation result of HTS active: effect of the compound in the JARID1B AlphaScreen demethylase assay (JARID1B): 9.33
- Artifact signal: effect of the compound when it is incubated with bio-H3K4me2 peptide [1]: 5.15
Molecule: O=C(O)c1cc2cc(Cc3ccccc3Cl)ccc2oc1=O [YU151859]

- Assay − Artifact Signal (percent) (JARID1B): 11.28%
- inhibition at 20 µM (JARID1B; [2]): 60.1%
- Assay Signal (percent) (JARID1B): 5.25%
- Artifact Signal (percent) [1]: −6.03%
Molecule: Cc1ccc(C)c(NS(=O)(=O)c2ccc3[nH]c(=O)oc3c2)c1 [YU152226]

- inhibition at 20 µM (JARID1B; [2]): 99.5%
Molecule: O=C(O[C@@H]1Cc2c(O)cc(O)cc2O[C@@H]1c1ccc(O)c(O)c1)c1cc(O)c(O)c(O)c1 [YU155085, EPICATECHIN MONOGALLATE, reference compound]

- inhibition at 20 µM (JARID1B; [2]): 104%
- Validation result of HTS active: effect of the compound in the JARID1B AlphaScreen demethylase assay (JARID1B): 103.69
- Artifact signal: effect of the compound when it is incubated with bio-H3K4me2 peptide [1]: 95.69
Molecule: O=C(O[C@@H]1Cc2c(O)cc(O)cc2O[C@@H]1c1cc(O)c(=O)c2c(O)c(O)cc([C@H]3Oc4cc(O)cc(O)c4C[C@H]3O)c2c1)c1cc(O)c(O)c(O)c1 [YU155347, THEAFLAVIN MONOGALLATES, reference compound]

- Inhibitory effect (percent) (JARID1B; [2]): 105.46%
Molecule: O=C(OC[C@H]1O[C@@H](OC(=O)c2cc(O)c(O)c(OC(=O)c3cc(O)c(O)c(O)c3)c2)[C@H](OC(=O)c2cc(O)c(O)c(OC(=O)c3cc(O)c(O)c(O)c3)c2)[C@@H](OC(=O)c2cc(O)c(O)c(OC(=O)c3cc(O)c(O)c(O)c3)c2)[C@@H]1OC(=O)c1cc(O)c(O)c(OC(=O)c2cc(O)c(O)c(O)c2)c1)c1cc(O)c(O)c(OC(=O)c2cc(O)c(O)c(O)c2)c1 (stereo in doubt) [YU155507, TANNIC ACID, reference compound]

- Inhibitory effect (percent) (JARID1B; [2]): 98.42%
Molecule: O=C(O[C@@H]1Cc2c(O)cc(O)cc2O[C@@H]1c1cc(O)c(O)c(O)c1)c1cc(O)c(O)c(O)c1 [YU155090, EPIGALLOCATECHIN-3- MONOGALLATE, reference compound]
